Inhibition and Activity data for ten compounds are collected here from ChEMBL document CHEMBL5036314, “Structure-Guided Design of the First Noncovalent Small-Molecule Inhibitor of CRM1” (J Med Chem, 2021).

Structures are written as SMILES. Calls of active or inactive are those of the source. The rule behind the calls is not given here.

The target of assay [1] is Exportin-1 (Saccharomyces cerevisiae) (UniProt P30822). Description: Inhibition of GST-NES MVM binding to yeast CRM1 at 20 uM by pull down assay.
The subject of assay [2] is HeLa. The assay is described as follows: Anti-cancer activity against human HeLa cells assessed as cell viability at 20 uM incubated for 2 hrs by EdU incorporation based assay. It counts as functional.
Another assay has as its system Saccharomyces cerevisiae. The assay is described as follows: Inhibition of NES binding to yeast CRM1-T539 mutant in absence of RanGTP at 20 uM by pull down assay.
For another assay, the system named is PANC-1. The assay is described as follows: Anti-cancer activity against human PANC-1 cells assessed as cell survival at 10 uM for 72 hrs replaced with compound containing fresh culture medium every 12 hrs by Sulforhodamine B assay. The class given is functional, cell-based. For orientation: The SRB assay estimates cell density from bound dye.
The test system of another assay is Huh-7. Description: Anti-cancer activity against human HuH-7 cells assessed as cell survival at 10 uM for 72 hrs replaced with compound containing fresh culture medium every 12 hrs by Sulforhodamine B assay. It counts as functional, cell-based.
The next assay concerns HCT-116. The assay is described as follows: Anti-cancer activity against human HCT-116 cells assessed as cell survival at 10 uM for 72 hrs replaced with compound containing fresh culture medium every 12 hrs by Sulforhodamine B assay. It counts as functional, cell-based.
In the next assay the test system is A2780. Description: Anti-cancer activity against human A2780 cells assessed as cell survival at 10 uM for 72 hrs replaced with compound containing fresh culture medium every 12 hrs by Sulforhodamine B assay. The class given is functional, cell-based.
For a further assay, the system named is MGC-803. The assay is described as follows: Anti-cancer activity against human MGC-803 cells assessed as cell survival at 10 uM for 72 hrs replaced with compound containing fresh culture medium every 12 hrs by Sulforhodamine B assay. It counts as functional, cell-based.
In the next assay the test system is HepG2. The assay is described as follows: Anti-cancer activity against human HepG2 cells assessed as cell survival at 10 uM for 72 hrs replaced with compound containing fresh culture medium every 12 hrs by Sulforhodamine B assay. It counts as functional, cell-based.
A further assay concerns SW48. The assay is described as follows: Anti-cancer activity against human SW48 cells assessed as cell survival at 10 uM for 72 hrs replaced with compound containing fresh culture medium every 12 hrs by Sulforhodamine B assay. The class given is functional, cell-based.
A further assay has as its system HGC-27. Description: Anti-cancer activity against human HGC-27 cells assessed as cell survival at 10 uM for 72 hrs replaced with compound containing fresh culture medium every 12 hrs by Sulforhodamine B assay. It counts as functional, cell-based.
For assay [3], the system named is HeLa. Description: Anti-cancer activity against human HeLa cells assessed as cell survival at 10 uM for 72 hrs replaced with compound containing fresh culture medium every 12 hrs by Sulforhodamine B assay. The class given is functional, cell-based.
The test system of a further assay is A549. The assay is described as follows: Anti-cancer activity against human A549 cells assessed as cell survival at 10 uM for 72 hrs replaced with compound containing fresh culture medium every 12 hrs by Sulforhodamine B assay. The class given is functional, cell-based.
The subject of assay [4] is HeLa. Description: Binding affinity to human CRM1 C528S mutant transfected HeLa cells assessed as inhibition of nuclear export of cargoes at 2 uM incubated for 12 hrs by confocal microscope analysis. The class given is cell-based.
For a further assay, the target named is Exportin-1 (Homo sapiens, UniProt O14980). Description: Binding affinity to wild type human CRM1 transfected HeLa cells assessed as inhibition of nuclear export of cargoes at 2 uM incubated for 12 hrs by confocal microscope analysis. The class given is cell-based.
The subject of assay [5] is HeLa. Description: Cytotoxicity against human HeLa cells transfected with hCRM1-C528S-mutant assessed as cell viability measured for 72 hrs replaced with compound containing fresh culture medium every 12 hrs by Sulforhodamine B assay. It counts as functional, cell-based.

Chain of Exportin-1 (O14980 whole entry): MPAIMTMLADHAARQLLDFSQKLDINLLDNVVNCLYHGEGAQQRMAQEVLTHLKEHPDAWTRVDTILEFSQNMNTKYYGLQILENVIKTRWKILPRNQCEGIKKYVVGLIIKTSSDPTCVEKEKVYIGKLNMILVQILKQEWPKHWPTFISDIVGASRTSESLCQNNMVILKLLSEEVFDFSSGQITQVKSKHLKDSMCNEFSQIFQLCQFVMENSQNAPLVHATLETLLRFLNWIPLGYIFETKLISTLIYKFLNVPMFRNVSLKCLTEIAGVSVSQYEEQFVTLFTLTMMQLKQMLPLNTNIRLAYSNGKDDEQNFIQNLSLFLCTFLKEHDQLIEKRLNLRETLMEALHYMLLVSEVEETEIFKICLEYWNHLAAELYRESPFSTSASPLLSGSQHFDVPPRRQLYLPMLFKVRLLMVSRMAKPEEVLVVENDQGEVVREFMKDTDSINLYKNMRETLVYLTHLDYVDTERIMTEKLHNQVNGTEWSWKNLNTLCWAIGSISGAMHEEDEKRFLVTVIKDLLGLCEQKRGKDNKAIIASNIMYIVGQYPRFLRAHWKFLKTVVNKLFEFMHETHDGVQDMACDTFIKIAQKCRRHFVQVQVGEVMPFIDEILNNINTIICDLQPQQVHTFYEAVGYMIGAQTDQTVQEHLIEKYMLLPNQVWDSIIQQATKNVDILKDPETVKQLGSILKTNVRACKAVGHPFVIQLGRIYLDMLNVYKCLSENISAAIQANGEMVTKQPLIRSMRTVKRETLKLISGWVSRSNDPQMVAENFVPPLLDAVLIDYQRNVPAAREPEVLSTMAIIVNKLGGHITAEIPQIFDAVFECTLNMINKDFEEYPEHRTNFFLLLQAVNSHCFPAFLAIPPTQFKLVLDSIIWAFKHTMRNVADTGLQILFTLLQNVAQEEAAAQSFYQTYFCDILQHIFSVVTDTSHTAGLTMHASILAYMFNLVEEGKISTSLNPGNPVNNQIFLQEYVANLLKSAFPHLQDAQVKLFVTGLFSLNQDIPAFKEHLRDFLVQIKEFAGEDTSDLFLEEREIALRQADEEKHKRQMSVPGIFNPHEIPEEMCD

On to `[O-][S+](Cc1ccnc(Cl)c1)c1cc(C(F)(F)F)cc(C(F)(F)F)c1` (stereo unspecified), for which the inhibition entry in [1] is “inactive”. In the assay on HeLa [2], the result was inactive.
On to `[O-][S+](Cc1cc(Br)no1)c1cc(C(F)(F)F)cc(C(F)(F)F)c1` (stereo unspecified), for which the inhibition entry in assay [1] was “inactive”. Besides, the result in the assay on HeLa [2] was inactive.
On to `[O-][S+](/C=C/CBr)c1cc(C(F)(F)F)cc(C(F)(F)F)c1` (stereo unspecified), for which the inhibition result (in [1]; in the assay on Saccharomyces cerevisiae) was “Active” each time. In addition, the result with HeLa [2] was inactive.
`CC(C)CCNC/C=C/Sc1cc(C(F)(F)F)cc(C(F)(F)F)c1`: the result with HeLa [2] was inactive.
With `CC(C)CCNc1cc(C[S+]([O-])c2cc(C(F)(F)F)cc(C(F)(F)F)c2)on1` (stereo unspecified), in [1], the inhibition result is “inactive”. Moreover, in the assay with HeLa [2], the result was inactive.
For the compound `CC(C)CCNc1cc(C[S+]([O-])c2cc(C(F)(F)F)cc(C(F)(F)F)c2)ccn1` (stereo unspecified), the inhibition result in assay [1] is “inactive”. Further, in the assay with HeLa [2], the result was inactive.
With `CC1=C(COCCC(C)(C)C)C(=O)N(Nc2ccc(C(F)(F)F)c(Cl)n2)C1=O`, the result in the assay on PANC-1, in the assay on Huh-7, in the assay on HCT-116, with A2780, in the assay on MGC-803 and with HepG2 was Active. Also, the result with SW48, in the assay on HGC-27, in the assay on HeLa [3] and in the assay with A549 was Active.
For `FC(F)(F)c1cc(S/C=C/CBr)cc(C(F)(F)F)c1`, the inhibition result (in assay [1]; with Saccharomyces cerevisiae) was “Active” in each case. For the same compound, the outcome with HeLa [2] was inactive.
Turning to `O=C(/C=C\n1cnc(-c2cc(C(F)(F)F)cc(C(F)(F)F)c2)n1)NNc1cnccn1`, the inhibition result with Saccharomyces cerevisiae, with HeLa [4] and at Exportin-1 was “inactive” each time. The outcome with PANC-1, in the assay on Huh-7, in the assay with HCT-116, in the assay on A2780, in the assay with MGC-803 and with HepG2 was Active. Further, the result in the assay on SW48, with HGC-27, in the assay with HeLa [3] and in the assay with A549 was Active. The outcome with HeLa [5] was inactive.
As to `FC(F)(F)c1cc(SCc2ccnc(Cl)c2)cc(C(F)(F)F)c1`, the inhibition result in assay [1] was “inactive”. Moreover, the outcome in the assay on HeLa [2] was inactive.
